Here are results for 3 compounds from patent US20260118363A1, “Application of GLUN2A and NMDA Receptor Containing GLUN2A as Targets in Screening Drugs for Treating Depression” (Synphatec (Shanghai) Biopharmaceutical Technology Co., Ltd., priority 2021, published 2026).

In assay [1] the test system is mice. The experiment in a line: Forced swim test. Type of assay: in vivo, mouse. Particulars: for immobility time in the forced swim test: 10 mg/kg intraperitoneal injection, 1 hour after injection. How it is done: The mice were placed in a transparent organic glass water tank with a diameter of 25 cm and a height of 30 cm, which was filled with 15 cm high of water with a temperature of 23-25° C., and the total recording time was 6 min. The immobility time of the mice within the latter 4 min was analysed, reflecting the degree of helplessness and despair of the mice.
(§1) MK-801 at a dose of 0.1 mg/kg, ketamine at a dose of 10 mg/kg, and Ro 25-6981 at a dose of 10 mg/kg were administrated to mice by intraperitoneal injection. Behavioural experiments such as subsequent open field tests, tail suspension tests, and forced swim tests were carried out 1 hour post intraperitoneal injection.

Assay [2] concerns excitatory neurons in the hippocampus. In words: Whole cell recording of intrinsic excitability in hippocampal slices. Particulars: for excitability of hippocampal neurons (number of action potentials): MK-801 10 µM, ketamine 20 µM. Type of assay: cell-based, mouse. As to the method: The beaker containing choline chloride slice solution was placed in an ice box and continuously introduced with a mixture of 95% O2 and 5% CO2 to saturate it with oxygen for use. After anesthetized with isoflurane, mice aged 4-8 weeks were quickly decapitated and euthanized. After exposing the skull and peeling off the dura mater, the whole brain was placed in a pre-cooled choline chloride solution for about 1 minute to reduce brain temperature. The whole brain was then taken out and the bilateral hippocampus were peeled off and attached to the surface of the agar block with one end of the hippocampus close to one of the edges of the agar block, after which the hippocampus-attached agar block was glued with 502 adhesive to a removable tray of the oscillating slicer, which was secured in the slicing tank of the oscillating slicer filled with pre-cooled choline chloride slicing solution. The oscillating slicer blade was adjusted to the horizontal position, then start the slicer to begin slice. The speed of the oscillating slicer was set to about 0.2 mm/s, and the slice thickness was 400 μm. The sliced hippocampus was carefully placed into ACSF preheated in water bath at 33-34° C. using a rubber hose and incubated for 30-60 minutes with a continuous introduction of a gas mixture of 95% O2 and 5% CO2. After incubation at 33-34° C., the vessel containing the brain slices was removed from the water bath and incubated at room temperature for about 30 min with continuous aeration and then electrophysiological recordings were performed. Hippocampal slices can be used for about 6 hours under room temperature with continuous aeration.
Hippocampal slices after incubation were carefully transferred to the bath of the microscope carrier stage with a pipette, and were held in place by pressing using an anchor attached to parallel nylon filaments, using a peristaltic pump to keep the bath continuously pumped with oxygen-saturated ACSF, and the temperature was maintained at room temperature of about 23-26° C. The CA1 region of the hippocampus was firstly localised at low magnification (10×), then switching to high magnification (40×) to locate CA1, after which the field of view was switched to the monitor to look for pyramidal neurons with good condition in hippocampal CA1. […] In the experiment, a P-1000 electrode drawing instrument was used to draw glass electrodes using a three-step method, making the impedance of the electrode into the liquid 4-6 MS2. Prior to electrode into the liquid, a 10 ml syringe was used to apply about 2 ml or so of positive pressure into the electrode to prevent clogging of the electrode tip, and the baseline of the recording software was reset to zero using the Multiple 700B. A microelectrode operator was applied to slowly approach the electrode to the surface of the cell. When the electrode touched the surface of the cell, a “dimple-shaped” depression would appear. At this time, positive pressure would be immediately released and appropriate negative pressure would be applied to form a seal between the electrode and the cell. […] After stabilizing for about 30-60 seconds, negative pressure was applied to break the membrane, and at this moment, a whole cell mode was formed. In current clamp mode, a depolarized step current stimulation of 10-330 pA was applied, with a step current of 20 pA. The intrinsic excitability of the neuron was evaluated by analyzing the number of action potentials generated by the neuron.

The subject of assay [3] is mice. In words: Tail suspension test. The note with it: 10 mg/kg. It is filed as in vivo, mouse. How it is done:
After fixing the mice at about 1.5 cm from the distal end of the tail, the mice were suspended with their heads facing downwards at a distance of about 35 cm from the ground. The total duration of recording was 6 min, and the percentage of time that the mice remained stationary during the latter 4 min was analysed to reflect the degree of desperation of mice.
as §1

Where [4] appears, read: GluN2A KO mice, vs control group.
Setting [5] is: hippocampal slices from WT mice, Ro 25-6981 3 M (1-2 hours incubation), same depolarizing current stimulation.
Where [6] appears, read: hippocampal slices from GluN2A KO mice.

As to `C[C@@H](CN1CCC(Cc2ccccc2)CC1)[C@@H](O)c1ccc(O)cc1` [Ro 25-6981], the “immobility time in the forced swim test” value is “significantly reduced” in the assay on mice [1] (setting [4]) and “significant decrease” with mice [1] (WT mice, vs control (saline)). The “excitability of hippocampal neurons (number of action potentials)” value (“excitability of hippocampal neurons” below) in assay [2] (setting [5]) is “did not change”. The “immobility time in tail suspension test” value with mice [3] (GluN2A KO mice) is on record as “significantly reduced”; in the assay with mice [3] (WT mice, vs control (Saline) group), “significant decrease”.
Take `C[C@]12N[C@H](Cc3ccccc31)c1ccccc12` [MK-801]: the “immobility time in the forced swim test” value in the assay with mice [1] (setting [4]) is “comparable”; with mice [1] (WT mice, vs control (saline)), “significantly reduced”. Also, the “immobility time in forced swimming” value in the assay on mice [1] (GluN2A conditional knockout mice (tamoxifen-induced, adult), after treatment with MK-801 (FIG. 5)) is given as “not altered”; in the assay with mice [1] (control mice (UBC-CreERT/Grin2a flox/flox without GluN2A knockout), after administration of MK-801 (FIG. 5)), “significantly reduced”. Besides, the “rapid antidepressant like behavior (immobility time)” value with mice [1] (WT mice with GluN2B selectively inhibited by Ro 25-6981 plus MK-801, FIG. 11: tail suspension and forced swim tests) is “can still induce rapid antidepressant like behavior”. In addition, in assay [2] (acute hippocampal slices of WT mice incubated with Ro 25-6981 while adding MK-801), the “intrinsic excitability of excitatory neurons in the hippocampus” value is on record as “still induced an increase”. Besides, the entries for the “excitability of hippocampal neurons” value in assay [2] (setting [6]) and in assay [2] (setting [5]) were “blocked the increase in excitability” and “significantly increased”, respectively.
Regarding `CNC1(c2ccccc2Cl)CCCCC1=O` (centres unmarked) [ketamine], the “immobility time in the forced swim test” value is “comparable” in the assay with mice [1] (setting [4]) and “significantly reduced” with mice [1] (WT mice, vs control (saline)). Further, the “excitability of hippocampal neurons” value in assay [2] (setting [6]) is recorded as “blocked the increase in excitability”; in assay [2] (setting [5]) it was “significantly increased”.
